# Source: PMC10669433 (Antibiotics, 2023)
# “Also recorded” adds a separate entry of the source.
# Experiments:
# [1] = cited from earlier work
# Source text: It is associated with good tissue penetration, including staphylococcal biofilms, making this antibiotic a promising agent to treat biofilm-mediated infections.
# [2] = system: cardiovascular prosthetic infections (PVE, CEDI, PVGI); experiment: Microbiological cure / relapse (blood cultures) in the case series; assay type: in vivo, human
# Method: (§1) Clinical evaluation was carried out at the end of treatment (EOT) and at the end of a six-month follow-up. Primary outcome was clinical cure, defined as resolution of all clinical signs and symptoms of infection, with or without radiological improvement. […] Finally, for primary outcome, a comparison between patients treated with standard (the 1500 mg infusion regimen at day 1 and day 8, with subsequent 1000 mg administrations every 2 weeks) vs. TDM-guided approach was performed.
# [3] = system: cardiovascular prosthetic infections (PVE, CEDI, PVGI); experiment: 18F-FDG PET/TC radiological improvement; assay type: in vivo, human; conditions: 18F-FDG PET/TC available for nine patients; 6/9
# Source text: For diagnosis, all patients underwent clinical, microbiological, and echocardiographic evaluation (transthoracic echocardiography and transesophageal echocardiography [TEE]). Major echocardiographic criteria included vegetation, abscess, pseudoaneurysm, intracardiac fistula, valvular perforation or aneurysm, and new partial dehiscence of prosthetic valve. In addition, according to clinical indication, computed tomography (CT) angiography or cardiac one and/or 18F-fluorodeoxyglucose (FDG)-positron emission tomography (PET) PET were also performed.
# Data collection included demographic information, Charlson Comorbidity Index (CCI), type and site of infection, microbiological isolation, prior antibiotic treatment, surgical procedure (performed or not, complete or partial), laboratory variables, and when available, radiological improvement (fluorodeoxyglucose positron emission tomography (FDG-PET) alone or in combination with computed tomographic angiography (CTA) to assess optimal duration of antibiotic treatment at follow-up).
# S. aureus = conditions: dalbavancin group vs 22% in the SOC group, p = 0.484; cited from earlier work
# Source text: Unfortunately, all patients received dalbavancin as sequential therapy, with a medi ...
# infective endocarditis [4] = system: infective endocarditis; design: method as in PMID 37442488, PMID 30389305; conditions: 124 subjects with infective endocarditis; cited from earlier work
# [5] = system: cardiovascular prosthetic infections (PVE, CEDI, PVGI); experiment: Clinical cure in patients with cardiovascular prosthetic infections treated with dalbavancin as sequential therapy (retrospective case series); assay type: in vivo, human
# Method: Data were collected from May 2019 to May 2023 at the Modena University Hospital, a tertiary care hospital in Northern Italy. Cardiovascular infections included PVE, CEDI, and PVGI.
# as §1
# infective endocarditis [6] = conditions: review, sequential dalbavancin in infective endocarditis, 170 patients; cited from earlier work
# [7] = Adverse events in the case series; assay type: in vivo, human
# [8] = system: vancomycin-resistant S. aureus (VRSA); conditions: cited from earlier work
# Source text: (§2) Dalbavancin is a long-acting parenteral lipoglycopeptide, a semisynthetic derivative of teicoplanin. It is characterized by a large spectrum of action against Gram-positive bacteria, such as Staphylococcus aureus (including methicillin-resistant S. aureus, but also strains with intermediate sensitivity to vancomycin), Streptococcus agalactiae, Streptococcus pyogenes, Streptococcus anginosus, vancomycin-sensitive Enterococcus faecium, and Enterococcus faecalis; it is poorly active against vancomycin-resistant S. aureus (VRSA), and it is not active against vancomycin-resistant enterococci with t ...
# [9] = system: vancomycin-resistant enterococci with the Van A phenotype; conditions: cited from earlier work
# Source text: as §2
smiles,measurement,setting,value
CN[C@H]1C(=O)N[C@@H]2Cc3ccc(cc3)Oc3cc4cc(c3O[C@@H]3O[C@H](C(=O)O)[C@@H](O)[C@H](O)[C@H]3NC(=O)CCCCCCCCC(C)C)Oc3ccc(cc3Cl)[C@@H](O)[C@@H]3NC(=O)[C@H](NC(=O)[C@@H]4NC(=O)[C@@H](NC2=O)c2cc(cc(O)c2Cl)Oc2cc1ccc2O)c1ccc(O)c(c1)-c1c(O[C@H]2O[C@H](CO)[C@@H](O)[C@H](O)[C@@H]2O)cc(O)cc1[C@@H](C(=O)NCCCN(C)C)NC3=O [dalbavancin],elimination half-life,[1],14 days
same,total protein binding,[1],93%
same,clearance route,[1]; no active metabolites,predominantly renal
same,"Microbiological relapse after treatment interruption (n = 13), patients/evaluable",[2]; after dalbavancin interruption,1/13
same,"Microbiological cure at the EOT (n = 13), patients/evaluable","[2]; end of treatment, sustained negativity of blood cultures",10/13
same,Radiological improvement with a marked SUV reduction,[3],66.6%
same,treatment-related readmission rates within 30 days,S. aureus,15%
same,clinical success rate at 12 months of follow-up,infective endocarditis [4],95.2%
same,Clinical cure according to causative pathogen: E. faecalis,[5]; 1/1 patient,100%
same,Clinical cure according to causative pathogen: G. morbillorum,[5]; 1/1 patient,100%
same,Clinical cure according to causative pathogen: CoNS,[5]; 2/2 patients,100%
same,Clinical cure according to causative pathogen: viridans Streptococcus,[5]; 3/3 patients,100%
same,Clinical cure according to causative pathogen: S. aureus,[5]; 3/5 patients,60%
same,Clinical success in patients treated without TDM,[5]; 3/5 patients,60%
same,"Clinical cure, suppressive antibiotic therapy without complete source control",[5]; 6/9 patients,66.6%
same,"Clinical cure at the EOT, cardiac implantable electronic devices infections (n = 3), %","[5]; CEDI, end of treatment",(66.6) %
same,"Clinical cure at the EOT, cardiac implantable electronic devices infections (n = 3), patients/evaluable","[5]; CEDI, end of treatment",2/3
same,"Clinical cure at the EOT, prosthetic valve endocarditis (n = 8), %","[5]; PVE, end of treatment",(75) %
same,"Clinical cure at the EOT, prosthetic valve endocarditis (n = 8), patients/evaluable","[5]; PVE, end of treatment",6/8
same,"Clinical cure at the EOT, prosthetic vascular grafts infections (n = 6), %","[5]; PVGI, end of treatment",(83.3) %
same,"Clinical cure at the EOT, prosthetic vascular grafts infections (n = 6), patients/evaluable","[5]; PVGI, end of treatment",5/6
same,"Clinical cure at the EOT (n = 13), %","[5]; end of treatment, 10/13 patients",(76.9) %
same,"Clinical cure at the EOT (n = 13), patients cured/evaluable","[5]; end of treatment, dalbavancin 1500 mg day 1 and day 8, then further doses (fixed or TDM-guided), after first-line antibiotics",10/13
same,"Clinical cure, patients who underwent the complete source control intervention","[5]; implant removal, 4/4 patients",100%
same,"Clinical cure in TDM-guided group (n = 8), patients cured/evaluable",[5]; patients with TDM-guided redosing,7/8
same,Clinical Success End of Treatment,[5]; single patients,Yes (7 w); also recorded: Yes (25 w); also recorded: Yes (18 w); also recorded: Yes (29 w); also recorded: Yes (14 w); also recorded: Yes (47 w); also recorded: Yes (9 w); also recorded: No (16 w); also recorded: Yes (10 w); also recorded: Yes (20 w); also recorded: No (53 w); also recorded: No (12 w)
same,Clinical Success Six Months Follow-Up,"[5]; single patients, one table row per patient",Yes and No
same,"Clinical cure at six months of follow-up (n = 12), %",[5]; six-month follow-up,(75) %
same,"Clinical cure at six months of follow-up (n = 12), patients cured/evaluable",[5]; six-month follow-up,9/12
same,overall clinical efficacy,infective endocarditis [6],around 90%
same,Tolerability,"[7]; 14 patients, long-term therapy",well tolerated
same,"Adverse effect reactions: impaired renal function, %",[7]; of N = 14 patients,(7.1) %
same,"Adverse effect reactions: rash, %",[7]; of N = 14 patients,(7.1) %
same,activity against vancomycin-resistant S. aureus (VRSA),[8],poorly active
same,activity against vancomycin-resistant enterococci with the Van A phenotype,[9],not active
